Patent US20250115578A1, “AROMATIC FUSED RING NAV1.8 INHIBITOR, AND USE THEREOF” (CHENGDU KANGHONG PHARMACEUTICAL CO., LTD., priority 2022, published 2025)
Values after ≈ are worked out from the molar mass of the structure shown. Like-named read-outs stand apart in the source and are kept apart here.

Tests used:
hNav1.8 = hNav1.8 (Homo sapiens (Human), UniProt Q9Y5Y9); test: Manual patch clamp, Method 1 (CHO cell line stably expressing hNav1.8); format: cell-based; conditions: for inhibition at 0.01 µM / inhibition at 0.1 µM: read-out: Inhibition rate of hNav1.8; for IC50: Method 1, CHO-hNav1.8, manual patch clamp, resting state, read-out: IC50 inhibitory activity against hNav1.8; for inhibition at 0.1 µM: 100 nM
hNav1.8, sequence (Q9Y5Y9 whole entry): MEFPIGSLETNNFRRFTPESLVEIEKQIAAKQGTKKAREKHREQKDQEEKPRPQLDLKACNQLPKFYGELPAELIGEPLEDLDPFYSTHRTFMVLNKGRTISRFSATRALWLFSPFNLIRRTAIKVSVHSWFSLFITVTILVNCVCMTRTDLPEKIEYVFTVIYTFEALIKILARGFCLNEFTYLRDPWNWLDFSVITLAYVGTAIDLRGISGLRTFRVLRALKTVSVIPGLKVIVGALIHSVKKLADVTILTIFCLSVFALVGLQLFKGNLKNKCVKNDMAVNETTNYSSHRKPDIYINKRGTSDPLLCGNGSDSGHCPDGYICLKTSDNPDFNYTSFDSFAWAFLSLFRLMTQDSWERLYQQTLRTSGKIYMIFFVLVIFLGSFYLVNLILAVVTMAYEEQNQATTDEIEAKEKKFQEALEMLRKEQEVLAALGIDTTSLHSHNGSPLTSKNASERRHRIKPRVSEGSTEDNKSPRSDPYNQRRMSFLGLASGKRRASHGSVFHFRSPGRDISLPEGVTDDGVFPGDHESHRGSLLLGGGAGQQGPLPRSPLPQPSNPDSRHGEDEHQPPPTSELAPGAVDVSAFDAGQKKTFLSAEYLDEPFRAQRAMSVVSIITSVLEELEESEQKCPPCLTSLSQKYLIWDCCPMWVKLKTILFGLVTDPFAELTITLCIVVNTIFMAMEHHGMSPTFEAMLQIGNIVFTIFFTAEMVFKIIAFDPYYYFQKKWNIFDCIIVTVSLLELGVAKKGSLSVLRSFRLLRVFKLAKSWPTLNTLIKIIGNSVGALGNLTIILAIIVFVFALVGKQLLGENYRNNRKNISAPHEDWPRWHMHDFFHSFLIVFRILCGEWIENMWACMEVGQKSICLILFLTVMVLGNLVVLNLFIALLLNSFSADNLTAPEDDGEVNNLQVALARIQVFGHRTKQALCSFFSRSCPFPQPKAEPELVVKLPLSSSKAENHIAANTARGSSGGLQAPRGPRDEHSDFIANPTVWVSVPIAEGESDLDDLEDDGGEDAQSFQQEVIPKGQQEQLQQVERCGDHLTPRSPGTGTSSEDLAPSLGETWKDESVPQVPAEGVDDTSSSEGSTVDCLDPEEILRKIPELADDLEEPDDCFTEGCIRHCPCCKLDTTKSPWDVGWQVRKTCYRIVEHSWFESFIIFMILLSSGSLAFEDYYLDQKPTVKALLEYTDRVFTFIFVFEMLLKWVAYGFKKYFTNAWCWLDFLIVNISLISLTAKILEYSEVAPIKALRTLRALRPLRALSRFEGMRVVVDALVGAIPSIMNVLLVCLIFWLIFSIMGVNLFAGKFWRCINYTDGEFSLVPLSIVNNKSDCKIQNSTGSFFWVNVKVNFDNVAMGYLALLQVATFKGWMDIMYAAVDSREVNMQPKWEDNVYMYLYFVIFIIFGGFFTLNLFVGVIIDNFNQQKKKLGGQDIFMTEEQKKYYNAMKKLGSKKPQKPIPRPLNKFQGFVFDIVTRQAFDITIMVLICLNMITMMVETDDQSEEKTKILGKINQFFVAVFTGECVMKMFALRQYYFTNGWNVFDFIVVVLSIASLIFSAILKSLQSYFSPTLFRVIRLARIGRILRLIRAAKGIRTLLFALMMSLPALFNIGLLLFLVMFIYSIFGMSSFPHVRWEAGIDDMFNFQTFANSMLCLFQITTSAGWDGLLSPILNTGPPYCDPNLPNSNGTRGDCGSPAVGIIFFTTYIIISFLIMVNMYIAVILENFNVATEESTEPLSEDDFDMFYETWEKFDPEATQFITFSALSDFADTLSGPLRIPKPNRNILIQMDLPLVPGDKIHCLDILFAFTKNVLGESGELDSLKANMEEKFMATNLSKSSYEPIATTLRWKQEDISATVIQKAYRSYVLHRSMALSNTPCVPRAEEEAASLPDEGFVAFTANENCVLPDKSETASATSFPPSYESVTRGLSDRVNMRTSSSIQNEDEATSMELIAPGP
Description: The patch clamp technique is known as the “gold standard” for studying ion channels, and it uses glass microelectrodes to seal the cell membrane to measure the currents of various membrane channel. […] Patch clamp technology can evaluate the inhibition strength of different compounds on different states of Navs by measuring the changes of membrane channel currents after different compounds bind to different states of Navs.
The representative compounds of the present invention used stable CHO or HEK293 cell lines transfected with specific ion channels to measure the effect of the compounds on Nav1.8 currents by manual patch clamp test, to evaluate their inhibition strength.
The assay protocol of manual patch clamp is as follows:
CHO cell lines with stable expression of hNav1.8 were cultured in F12 medium containing 10% fetal bovine serum at a constant temperature of 37° C., and the carbon dioxide concentration was maintained at 5%. The old culture medium was removed and washed once with PBS, then 1 mL 0.25%-Trypsin-EDTA solution was added and incubated at 37° C. for 1 min. When the cells were detached from the bottom of the dish, 5 mL of the complete medium preheated at 37° C. was added, and the aggregated cells were separated by gently blowing with a straw. The cell suspension was transferred into a sterile centrifuge tube and centrifuged at 1000 rpm for 5 min to collect cells. The cells were then inoculated into a cell culture dish with a diameter of 6 cm (2.5×10^5 cells/petri dish, 5 mL medium) for expansion or maintenance.
In order to maintain the electrophysiological activity of the cells, the cell density must be less than 80%.
The cells were separated with 0.25%-Trypsin-EDTA before the assay, and 5×10^3 cells were seeded on a cover slip and cultured in a 24-well plate (final volume: 500 μL) for 18 h. Then the assay was conducted.
The compounds prepared in the examples of the present invention were dissolved in dimethyl sulfoxide (DMSO) and prepared into DMSO stock solution with a concentration of 10 mM for assay. And it was diluted to various concentrations with extracellular solution (140 mM NaCl, 3.5 mM KCl, 1 mM MgCl2, 2 mM CaCl2), 10 mM Glucose, 10 mM HEPES, 1.25 mM NaH2PO4, pH=7.4 regulated by NaOH), and the final concentration of DMSO in each compound sample was 0.10% or less.
A capillary glass pipette (BF150-86-10, Sutter Instruments) was pulled into a recording electrode with a micropipette puller (P97, Sutter Instruments). The micromanipulator (MP285, Sutter Instruments) was manipulated under an inverted microscope (IX71, Olympus) to make the recording electrode contact the cell and negative pressure suction was applied to achieve a GQ seal. Then, rapid capacitance compensation was performed, and negative pressure was continued, cell membrane was broken by suction, and whole cell recording mode was formed. Then the slow capacitance was compensated and the membrane capacitance and series resistance were recorded without leakage compensation. When the whole cell recording current was stabilized, dosing was initiated, and the next concentration was detected after acting 5 minutes of each drug concentration. Multiple cells were independently repeated during the recording period. All electrophysiological assays were performed at room temperature. Specifically, 6 concentrations (measuring IC50) or 2 concentrations (preliminary screening) were set for each compound, and the percentage of inhibition of sodium channels was determined by calculating the relative percentage of peak current generated before and after each concentration compound treated cells, and the IC50 value or percentage of inhibition at a specific concentration was calculated using IGOR pro software.

[1] = Stability assay for human liver microsomes in vitro; format: in vitro ADME; conditions: 1 μM compound, 0.5 mg/mL liver microsomes, read-out: Human liver microsome stability T1/2
Method: • Human liver microsomes, purchased from Corning or Xenotech, stored in a −80° C. refrigerator. • Nicotinamide adenine dinucleotide phosphate (NADPH), Chem-impex international, 00616 • Control compounds: testosterone, diclofenac, propafenone
• Water bath (HH-60, Guohua, Changzhou, China) • Pipette workstation (PP-550DS, Apricot, Covina, USA) • Centrifuge (5810R, Eppendorf, Hamburg, Germany) • Mass Spectrometer (Sciex API 4000, Singapore) • High Performance Liquid Chromatography (LC 20-AD, Shimadzu, Kyoto, Japan) • Sampler (ADDA, Apricot Designs, California, USA)
• Stock solution: 10 mM in DMSO • Working solution concentration preparation: 10 mM stock solution was diluted to 100 μM with 100% acetonitrile (organic phase content: 99% ACN, 1% DMSO)
Two 96-well incubation plates were named T60 incubation plate and NCF60 incubation plate.
445 μL microsomal working solution (liver microsomal protein concentration: 0.56 mg/mL) was added to the T60 and NCF60 incubation plates respectively, then the incubation plates above were placed in a water bath at 37° C. for pre-incubation approximately 10 minutes.
After the pre-incubation finished, 5 μL of the test compound working solution was added to the T60 and NCF60 incubation plates respectively, and mixed well. 50 μL potassium phosphate buffer was added to each well on the NCF60 incubation plate to start the reaction. 180 μL termination solution (acetonitrile solution containing 200 ng/mL tolbutamide and 200 ng/mL labetalol) and 6 uL working solution of NADPH regeneration system were added to the TO termination plate, and 54 μL samples were removed from the T60 incubation plate to the TO termination plate (TO sample generated). The reaction was initiated by adding 44 μL of NADPH regenerating system working solution per well on the T60 incubation plate. Only 54 μL microsomal working solution, 6 uL NADPH regeneration system working solution, and 180 μL termination solution were added to the Blank plate. Therefore, in the samples of the test or control compounds, the final reaction concentration of the compounds, testosterone, diclofenac and propafenone was 1 μM, the concentration of the liver microsomes was 0.5 mg/mL, and the final concentration of DMSO and acetonitrile in the reaction system was 0.01% (v/v) and 0.99% (v/v), respectively.
After incubation for an appropriate time (e.g. 5, 10, 20, 30, and 60 minutes), 180 μL of termination solution (acetonitrile solution containing 200 ng/mL tolbutamide and 200 ng/mL labetalol) was added to the sample hole of each termination plate, respectively. After that, 60 μL sample was removed from the T60 incubation plate to terminate the reaction.
All sample plates were shaken evenly and centrifuged at 3220×g for 20 min. Then 80 μL supernatant was taken from each well and diluted to 240 μL pure water for LC-MS/MS analysis.
All samples were injected for analysis.

[2] = Assay of kinetic solubility; format: physicochemical; conditions: aqueous buffer, kinetic from dmso stock, pH 3.5 phosphate buffer, 25° C.
Method: The stock solutions of the test compound and the standard progesterone were prepared in DMSO at the concentration of 10 mM.
30 μL of stock solutions at 10 mM of the test compounds and standard substance were placed in order into their proper 96-well plate. 970 μL phosphate buffer at the specified pH was added to the proper vial of the sample plate. The assay was performed in duplicate. A stirring stick was added to each vial and the teflon/silicone plug was capped. The sample tray was then placed in the Eppendorf Thermomixer Comfort and shaken at 1100 RPM at 25° C. for 2 hours. After 2 hours, plugs were removed, a big magnet was used to remove the stirring sticks, and samples were transferred from the sample plate to the filter plate. Vacuum pump was used to create negative pressure and filtered the samples. Transferred 5 μL of the filtrate to the new sample plate, then added 5 μL DMSO and 490 μL water/acetonitrile (V/V=1/1) to dilute the solvent. The dilution factor may be adjusted according to the solubility values of the substances to be tested or the strength of its LC-MS signal response.
From the 10 mM DMSO stock solution, 15 μL of that was transferred into the empty plate and 485 μL DMSO was added to prepare a 300 μM standard solution. From the 300 μM standard solution plate, 5 μL of that was transferred to another empty plate and 5 μL phosphate buffer at specified pH and 490 μL water/acetonitrile (V/V=1/1) dilution solvent were added to the standard solution to get a final concentration of 3 μM. The concentration of the standard solution may be adjusted according to the strength of its LC-MS signal response.
The sample plate was placed into the sample tray of the automatic sampler and the samples were evaluated by LC-MS/MS analysis.
All calculations were carried out by Microsoft Excel.
The sample filtrate was analyzed and quantified against a standard of known concentrations using LC-MS spectral peaks to identify and quantify. The solubility values of the control drug and the compounds to be tested were calculated as the following formula: • [Sample]: concentration of the sample • AREASample: peak area of the sample • INJ VOLStd: standard sample injection volume • DFSample: sample dilution factor • [STD]: standard substance concentration • AREAStd: peak area of standard substance • INJ VOLSample: sample injection volume

Human Nav1.8 ion channel = Human Nav1.8 ion channel (Homo sapiens (Human), UniProt Q9Y5Y9); test: Manual patch clamp, Method 2 (HEK293 cells stably expressing human Nav1.8, resting state); format: cell-based; conditions: Method 2, HEK293-hNav1.8, resting state, 1 μM TTX; read-out: IC50 inhibitory activity against hNav1.8

| Structure (SMILES) | inhibition at 0.01 µM (hNav1.8; 10 nM, Method 1, CHO-hNav1.8) | IC50 (hNav1.8) | half-life at 1 µM [1] | solubility kinetic at 2 h [2] | inhibition at 0.1 µM (hNav1.8; Method 1, CHO-hNav1.8) | IC50 (Human Nav1.8 ion channel) | inhibition at 0.01 µM (hNav1.8; CHO) |
| --- | --- | --- | --- | --- | --- | --- | --- |
| NC(=O)c1cccc(NC(=O)c2nc3ccccc3nc2N2CCCC(F)(F)CC2)c1 [Example 07, N-(3-carbamoylphenyl)-3-(4,4-difluoroazepan-1-yl)quinoxaline-2-carboxamide] | 48.3% | 14.7 nM | 1.06 h | 52.7 µM (≈ 22.4 µg/mL) |  |  |  |
| CNS(=O)(=O)c1cc(NC(=O)c2cc3ccccc3nc2N2CCCC(F)(F)CC2)ccn1 [Example 28, 2-(4,4-difluoroazepan-1-yl)-N-(2-(N-methylsulfamoyl)pyridin-4-yl)quinoline-3-carboxamide] |  |  |  | 131 µM (≈ 62.3 µg/mL) | 94.2% | 11.4 nM |  |
| NS(=O)(=O)c1cccc(NC(=O)c2cc3ccccc3nc2Oc2ccc(F)cc2Cl)c1 [Example 30, 2-(2-chloro-4-fluorophenoxy)-N-(3-sulfamoylphenyl)quinoline-3-carboxamide, reference compound] |  |  |  | < 0.18 µM | 94% | 9.5 nM |  |
| CS(=N)(=O)c1cc(NC(=O)c2cc3cc(F)c(F)cc3nc2N2CCCC(F)(F)CC2)ccn1 (centres unmarked) [Example 27, 2-(4,4-difluoroazepan-1-yl)-6,7-difluoro-N-(2-(S-methylsulfonimidoyl)pyridin-4-yl)quinoline-3-carboxamide] |  |  | 2.26 h | 78.8 µM (≈ 39 µg/mL) | 97% |  |  |
| CS(=N)(=O)c1cc(NC(=O)c2cc3ccccc3nc2N2CCCC(F)(F)CC2)ccn1 (centres unmarked) [Example 26, 2-(4,4-difluoroazepan-1-yl)-N-(2-(S-methylsulfonimidoyl)pyridin-4-yl)quinoline-3-carboxamide] |  |  | 1.17 h | 127 µM (≈ 58.4 µg/mL) | 91.5% | 8 nM |  |
| Cc1ccc2cc(C(=O)Nc3ccnc(C(N)=O)c3)c(N3CCCC(F)(F)CC3)nc2c1 [Example 23, N-(2-carbamoylpyridin-4-yl)-2-(4,4-difluoroazepan-1-yl)-7-methylquinoline-3-carboxamide] |  |  |  |  | 97.2% | 1.5 nM |  |
| NS(=O)(=O)c1cc(NC(=O)c2nc3ccccc3nc2N2CCCC(F)(F)CC2)ccn1 [Example 06, 3-(4,4-difluoroazepan-1-yl)-N-(2-sulfamoylpyridin-4-yl)quinoxaline-2-carboxamide] |  | 3.1 nM | > 2.42 h | 0.39 µM (≈ 0.18 µg/mL) |  |  | 77.6% |
| NC(=O)c1cc(NC(=O)c2cc3ccccc3nc2N2CCCC(F)(F)CC2)ccc1F [Example 09, N-(3-carbamoyl-4-fluorophenyl)-2-(4,4-difluoroazepan-1-yl)quinoline-3-carboxamide] | 91.3% | 1 nM | 0.372 h | 157 µM (≈ 69.6 µg/mL) |  | 0.918 nM |  |
| COc1cc2cc(C(=O)Nc3ccnc(C(N)=O)c3)c(N3CCCC(F)(F)CC3)nc2cc1OC [Example 24, N-(2-carbamoylpyridin-4-yl)-2-(4,4-difluoroazepan-1-yl)-6,7-dimethoxyquinoline-3-carboxamide] |  |  | > 2.42 h | 9.88 µM (≈ 4.8 µg/mL) | 51% | 97.1 nM |  |
| NS(=O)(=O)c1cccc(NC(=O)c2cc3ccccc3nc2N2CCCC(F)(F)CC2)c1 [Example 13, 2-(4,4-difluoroazepan-1-yl)-N-(3-sulfamoylphenyl)quinoline-3-carboxamide] | 95.6% |  |  | 3.38 µM (≈ 1.56 µg/mL) | 99.7% |  |  |
